Tests used:
E. coli [1] = test: minimum inhibitory concentration (MIC) using E. coli; assay type: cell-based; conditions: Escherichia coli
Method: Two volumes of 0.01N NH4OH in water were added slowly to one volume of a 42% by weight solution of 3-(trimethoxysilyl) propyldimethyloctadecyl ammonium chloride in methanol while stirring at room temperature. After ten minutes an additional two volumes of 0.01N NH4OH were added, stirring continued for an additional ten minutes. An additional five volumes of 0.1N NH4OH were added and stirred for an additional ten minutes. The methanol and NH4OH were removed by evaporation and the resulting polymer concentrated to 5% (wt/wt) in a rotary evaporator. The solution was dried to a methanol-free dry powder. Infrared and NMR spectroscopy confirmed the resultant powder was a homopolymer of (trimethoxysilyl) propyldimethyloctadecyl ammonium chloride.

E. coli [2] = test: ASTM E2149-01 on treated cotton swatches before and after accelerated laundering AATCC 61-1996; assay type: cell-based
Method: (§1) Antimicrobial testing of the cast PVC films of Example 4 was carried out essentially as described in the ASTM designation E 2149-01 entitled, “Standard test Method for Determining the Antimicrobial Activity of Immobilized Antimicrobial Agents under Dynamic Contact Conditions.” This test is designed to evaluate the antimicrobial properties of materials, which contain active agents that are non-leaching. The method is described briefly below.
E. coli was grown overnight in rich media in an incubator-shaker at 37° C. while shaking at 300 rpm. After 18 hours of incubation, the bacteria were removed from the incubator and the optical density at 660 nm was measured. The culture was diluted until the optical density corresponds to a bacterial concentration of between 1×10^8 and 3×10^8 Colony Forming Units (CFU) per milliliter. The bacteria were further diluted in phosphate buffer (0.3 mM KPO4 at pH 7.2) such that the working concentration was 1×10^6 to 3×10^6 CFU/mL. Test specimens were added to sterile 15 mL test tubes followed by the addition of 3 mL of the bacterial solution. An aliquot was immediately removed from the flask, serially diluted, and used to inoculate Petri plates containing nutrient agar. The plates were incubated overnight and the concentration of bacteria (CFU/mL) was thus determined. This represents the Time 0 (T0) control. The tube containing the sample was placed in a shaking incubator at 37° C. and 300 rpm for one hour, at which time another aliquot was taken and tested as above. This is the treated sample (TF). All tests were controlled by the inclusion of a tube that contained an untreated sample and a flask with no sample but with bacteria. […] Log kill is a standard method to establish the ability of antimicrobial agents to destroy microorganisms. A log kill of 5.0 means that 100,000 microorganisms were destroyed on contact with the treated surface. A log kill of 6.0 establishes that 1,000,000 microorganisms were destroyed on contact with the treated surface. A log kill in excess of 5.0 is typically interpreted as an exceptionally active antimicrobial agent.
Unbleached cotton fabric was treated with various concentration levels of both monomeric 3-(trimethoxysilyl) propyldimethyloctadecyl ammonium chloride and the homopolymer of 3-(trimethoxysilyl) propyldimethyloctadecyl ammonium chloride as prepared in Example 2. In all cases 2 inch (5.1 cm) by 2 inch (5.1 cm) swatches of fabric were treated by immersing them in an aqueous solution containing the respective concentration of monomeric or polymeric 3-(trimethoxysilyl) propyldimethyloctadecyl ammonium chloride for a minimum of ten minutes. The swatches were subsequently removed from the aqueous solution and air-dried overnight. The swatches were analyzed for antimicrobial activity using ASTM E2149-01 as described in Example 5 followed by an accelerated laundering test according to AATCC 61-1996, which simulates multiple laundering effects. The swatches were again analyzed for antimicrobial activity according to ASTM E2149-01 to determine the effect of laundering on the antimicrobial activity. Antimicrobial activity is reported as percent reduction in E. coli concentration.

[3] = carbon tetrachloride (CTC) activity of activated carbon, ASTM Method D3467; assay type: physicochemical
Method: Determining whether the impregnation of the carbon with antimicrobial agents had any adverse effect on the adsorption properties of the carbon was accomplished by testing the carbon tetrachloride (CTC) activity of the carbon prior to impregnation and following impregnation with the monomer and polymer forms of the antimicrobial agent. The CTC activity testing was performed by a vendor in accordance with ASTM Method […].

E. coli [4] = test: ASTM E 2149-01 antimicrobial activity of immobilized agents under dynamic contact conditions (dynamic shake flask test); assay type: cell-based
Method: as §1
E. coli was grown overnight in rich media in an incubator-shaker at 37° C. while shaking at 300 rpm. After 18 hours of incubation, the bacteria were removed from the incubator and the optical density at 660 nm was measured. The culture was diluted until the optical density corresponds to a bacterial concentration of between 1×10^8 and 3×10^8 Colony Forming Units (CFU) per milliliter. The bacteria were further diluted in phosphate buffer (0.3 mM KPO4 at pH 7.2) such that the working concentration was 1×10^6 to 3×10^6 CFU/mL. Test specimens were added to sterile 15 mL test tubes followed by the addition of 3 mL of the bacterial solution. An aliquot was immediately removed from the flask, serially diluted, and used to inoculate Petri plates containing nutrient agar. The plates were incubated overnight and the concentration of bacteria (CFU/mL) was thus determined. This represents the Time 0 (T0) control. […]

## CCCCCCCCCCCCCCCCCC[N+](C)(C)CCC[Si](OC)(OC)OC.[Cl-] [Monomer, 3-(trimethoxysilyl) propyldimethyloctadecyl ammonium chloride]
E. coli [1]
  MIC: 0.98 µg/mL
E. coli [2]; 0.010 % active in solution
  % Reduction, laundered: 0%
  % Reduction, unlaundered: 22%
E. coli [2]; 0.025 % active in solution
  % Reduction, laundered: 0%
  % Reduction, unlaundered: 38%
E. coli [2]; 0.050 % active in solution
  % Reduction, laundered: 98.86%
  % Reduction, unlaundered: 95%
E. coli [2]; 0.075 % active in solution
  % Reduction, laundered: 99.19%
  % Reduction, unlaundered: 99.59%
E. coli [2]; 0.100 % active in solution
  % Reduction, laundered: 99.91%
  % Reduction, unlaundered: 99.99%
E. coli [2]; 0.25 % active in solution
  % Reduction, laundered: 99.99%
  % Reduction, unlaundered: 99.99%
[3]; activated carbon treated at 0.1 wt. % agent
  (Wt.) % CTC: 77.6 (Wt.) %
[3]; activated carbon treated at 0.25 wt. % agent
  (Wt.) % CTC: 73.4 (Wt.) %
[3]; activated carbon treated at 0.5 wt. % agent
  (Wt.) % CTC: 75.4 (Wt.) %
E. coli [4]; coconut shell activated carbon treated at 0.1 wt. % agent
  Log Kill: None
E. coli [4]; coconut shell activated carbon treated at 0.25 wt. % agent
  Log Kill: 6.11
